The values that follow come from patent US5093045A, “Biologically active lipids binding membrane receptors” (priority 1990, dated 1992).

Assay [1] has as its system phorboid receptor (PDBu receptor) of murine brain membranous fraction (BMF). Put plainly: PDBu binding inhibiting activity (PBIA): inhibition of 3H-PDBu binding to murine brain membranous fraction. The arrangement: species or system mouse. The method, then:
Pooled murine brains from approximately 2 month old mice, NFS strain, were minced with scissors, suspended in 1 mM triethanolamine-HCl, pH 7.4, and disrupted with a polytron P-10 (Brinkman). This and all subsequent steps were performed at 4° C. The homogenate was centrifuged for 10 minutes at 1700xg; the supernate was removed and centrifuged for 60 minutes at 105,000xg. The resulting pellet was suspended in one-fourth of the initial volume of PBS. The suspension was aliquoted into a small volume and stored at -70° C.
The binding of ^3 H-PDBu to BMF or soluble receptors was performed in duplicate in 12×75mm disposable glass tubes (Kimax) both in the absence and presence of 20μg/ml unlabeled PDBu; the binding mixture contained 5ng of ^3 H-PDBu (4×10^4 cpm), 0.2% final concentration of DMSO and BMF (50μg protein) or soluble receptors in a total volume of 0.25 ml binding buffer (BB) consisting of Dulbecco's […] (DMEM) containing bovine serum albumin (BSA lmg/ml) and N,N,-bis-(2-hydroxyethyl)-2-amino-ethane sulfonic acid (BES, 5mM), adjusted to pH 6.8. After incubation for 30 minutes at 23° C. the tubes were chilled, 0.5 ml cold 4% calf serum (Colorado Serum Co., Denver, CO) and 0.7 ml cold polyethylene glycol (PEG 6,000) in 1 mM Tris-HCl, pH 7.4 was added to each tube, the contents vortexed, the tubes allowed to stand for 15 min at 4° C., and centrifuged for 10 min at 1500xg at 4° C. The supernatant solution was carefully aspirated off, the pellet suspended in 2.5 ml of cold 10% PEG in 0.1 M Tris-HCl, pH 7.4, containing 0.5% SDS and 1 mM EDTA). The mixture was transferred to counting vials and 10 ml of Aquassure (NEN) was added to each vial. The vials were vigorously shaken and radioactivity determined using a Beckman beta counter.
The loss of the ability of ^3 H-PDBu to bind to receptors in the presence of ligand was used as the measure of inhibiting activity. PDBu binding inhibition assays were performed as described above, except the test materials were added to the reaction mixture and binding measured as described above.
The PBIA of ligand was equated with that of PDBu by the use of the term ng equivalent calculated from a plot of [^3 H]PDBu bound versus the log molar concentration for several biologically active phorbol esters (2). The curve corresponding to PDBu inhibition of PDBu binding was used by reading the molar concentration corresponding to the percent of control binding of ^3 H]PDBu in the presence of ligand to obtain the units ng PDBu equivalent of ligand.

Assay [2] deals with arachidonic acid cascade in mink lung cells. Nature of the assay: Stimulation of arachidonic acid cascade: release of radioactivity from cells prelabeled with arachidonic acid. It counts as cell-based. The following applies: cells previously labeled with radioactive arachidonic acid. An excerpt:
The release of radioactivity into the medium from cells previously labeled with radioactive arachidonic was used as a measure of activation of eicosanoids pathway. […] PBIL from all sources inhibited PDBu-receptor interaction.

Where “and” joins values, the source holds several entries; their conditions need not be identical. Identical values can stand only once.

As for `CCCCCCCC/C=C\CCCCCCCC(=O)OCC(CO)OC(=O)CCCCCCC/C=C\CCCCCCCC` (centres unmarked) [1,2-Diolein], the “Inhibition (%) of binding of PDBu to its receptor” value (“Inhibition (%) of binding of PDBu” below) in assay [1] (concentration 0.8 nM) is 20%.
On the same count and under the same terms, then `CCCCC/C=C\C/C=C\CCCCCCCC(=O)OCC(O)COC(=O)CCCCCCC/C=C\C/C=C\CCCCC` [1,3-Dilinolein], with 15%.
On to `CCCCCCCCCCCCCC(=O)OCC(O)COC(=O)CCCCCCCCCCCCC` [1,3-Dimyritin], for which the “Inhibition (%) of binding of PDBu” value in assay [1] (concentration 0.4 nM) is reported as 1%.
In the case of `CCCCCCCC/C=C\CCCCCCCC(=O)OCC(O)COC(=O)CCCCCCC/C=C\CCCCCCCC` [1,3-Diolein], the “Inhibition (%) of binding of PDBu” value in assay [1] (concentration 0.8 nM) amounted to 11%.
Consider `CCCCCCCCCCCCCCCC(=O)OCC(O)COC(=O)CCCCCCCCCCCCCCC` [1,3-Dipalmitin], for which the “Inhibition (%) of binding of PDBu” value in assay [1] (concentration 0.8 nM) is recorded as -12%.
On to `CCCCC/C=C\C/C=C\C/C=C\C/C=C\CCCC(=O)OCC(O)CO` (centres unmarked) [1-Monoarachidonin], for which the “Stimulation of arachidonic acid cascade (release of radioactivity into the medium)” value (shortened to “Stimulation of arachidonic acid cascade”) in assay [2] is on record as “stimulate the arachidonic acid cascade”. Also, in assay [1], the “Competition with phorbol dibutyrate for its receptor (qualitative)” value (shortened to “Competition with phorbol dibutyrate”) is recorded as “compete with phorbol dibutyrate for its receptor”. Besides, the “Inhibition (%) of binding of PDBu” value in assay [1] (concentration 0.2 nM) is listed as 41%; in assay [1] (concentration 0.4 nM), 91%; in assay [1] (concentration 0.8 nM), 95%.
With `CCCCC/C=C\C/C=C\CCCCCCCC(=O)OC[C@@H](O)CO` [1-Monolinolein], the “Stimulation of arachidonic acid cascade” value in assay [2] (listed as 1-monolinolein) is listed as “stimulate the arachidonic acid cascade”; in assay [2] (listed as monolinolein) it was “activated the arachidonic acid cascade”. Besides, in assay [1], the “Competition with phorbol dibutyrate” value is “compete with phorbol dibutyrate for its receptor”. Besides, the “Inhibition (%) of binding of PDBu” value in assay [1] (concentration 0.2 nM) came to 39%; in assay [1] (concentration 0.4 nM), 82%; in assay [1] (concentration 0.8 nM), 94%.
With `CC/C=C\C/C=C\C/C=C\CCCCCCCC(=O)OCC(O)CO` (centres unmarked) [1-Monolinolenin], the “Inhibition (%) of binding of PDBu” value in assay [1] (concentration 0.2 nM) was found to be 27%; in assay [1] (concentration 0.4 nM), 74%; in assay [1] (concentration 0.8 nM) it was 94%.
For the molecule `CCCCCCCCCCCCCC(=O)OCC(O)CO` (centres unmarked) [1-Monomyristin], the “Inhibition (%) of binding of PDBu” value in assay [1] (concentration 0.4 nM) is listed as 0%.
As for `CCCCCCCC/C=C\CCCCCCCC(=O)OCC(O)CO` (centres unmarked) [1-Monoolein], the figures for the “Inhibition (%) of binding of PDBu” value in assay [1] (concentration 0.4 nM) and in assay [1] (concentration 0.8 nM) were 21% and 63%, respectively.
For the molecule `CCCCCCCCCCCCCCCC(=O)OCC(O)CO` (centres unmarked) [1-Monopalmitin], the “Inhibition (%) of binding of PDBu” value in assay [1] (concentration 0.8 nM, 0.0008 µM) was -6% and -15%.
Take `CCCCCC/C=C\CCCCCCCC(=O)OCC(O)CO` (centres unmarked) [1-Monopalmitolein]: the “Stimulation of arachidonic acid cascade” value in assay [2] is “stimulate the arachidonic acid cascade”. Also, the “Competition with phorbol dibutyrate” value in assay [1] is “compete with phorbol dibutyrate for its receptor”. Moreover, the “Inhibition (%) of binding of PDBu” value is reported as 36% in assay [1] (concentration 0.4 nM) and 82% in assay [1] (concentration 0.8 nM).
On to `OCC(O)CO` [Glycerol], for which, in assay [1] (concentration 0.4 nM), the “Inhibition (%) of binding of PDBu” value is reported as 0%.
For the molecule `CCCCC/C=C\C/C=C\CCCCCCCC(=O)O` [Linoleic acid-Na], the “Inhibition (%) of binding of PDBu” value in assay [1] (concentration 0.4 nM) was determined as 10%; in assay [1] (concentration 0.8 nM) it was 15%.
Consider `CCCCCCCCCCCC(=O)OCC(COC(=O)CCCCCCCCCCC)OC(=O)CCCCCCCCCCC` [Trilaurin], for which the “Inhibition (%) of binding of PDBu” value in assay [1] (concentration 0.4 nM) worked out at 11%.
As for `CCCCC/C=C\C/C=C\CCCCCCCC(=O)OCC(COC(=O)CCCCCCC/C=C\C/C=C\CCCCC)OC(=O)CCCCCCC/C=C\C/C=C\CCCCC` [Trilinolein], the “Inhibition (%) of binding of PDBu” value in assay [1] (concentration 0.8 nM) is -1%.
Take `CCCCCCCCCCCCCC(=O)OCC(COC(=O)CCCCCCCCCCCCC)OC(=O)CCCCCCCCCCCCC` [Trimystrin]: in assay [1] (concentration 0.4 nM), the “Inhibition (%) of binding of PDBu” value stood at 15%.
As to `CCCCCCCCCCCCCCCC(=O)OCC(COC(=O)CCCCCCCCCCCCCCC)OC(=O)CCCCCCCCCCCCCCC` [Tripalmitin], the “Inhibition (%) of binding of PDBu” value in assay [1] (concentration 0.4 nM) was -11%; in assay [1] (concentration 0.8 nM), -8%.
